Measured values: patent US11466020B2, “Compounds and compositions for inhibition and elimination of Zika infection and uses for same” (Cornell University, priority 2017, dated 2022)
Counter-ions that a name gives are not always drawn.

System: ZIKV MR766
Test: Elimination of ZIKV from infected hNPCs (drug applied 2 h post infection, 3 days drug, 3 days drug-free)
Assay type: cell-based, Zika virus
Conditions: for ZIKV infection of hNPCs at day 6: 3 days treatment followed by 3 days culture without drug; for ZIKV infection rate of hNPCs at day 3: day 3 of treatment
Description: (A) Scheme to evaluate the elimination of ZIKV. At day 0, hNPCs were infected with ZIKV for 2 h. After removal of ZIKV infection medium, hNPCs were treated with drug candidates. At day 3, the culture medium was changed to fresh medium without compounds. The cells were maintained in drug-free culture until day 6 and used for immunohistochemistry and qRT-PCR. (B and C) Inhibitory curve and IC50 of HH calculated based on the infection rate (B) and normalized cell viability (C) (n=6). (D and E) Immunocytochemistry analysis (D) and the quantification of infection rate, cell apoptosis rate, and total cell number (E) of hNPCs on day 3 and day 6. Cells was fixed and stained with cleaved Caspase-3 (CAS3), ZIKV E and DAPI. Scale bars, 100 μm. (F) qRT-PCR analysis to monitor the total ZIKV vRNA in the supernatant of hNPC cultures on day 6. Scale bars, 200 μm. (n=3). (G) Vero cell reinfection assay to monitor the infective ZIKV vRNA in the supernatant of hNPC cultures at day 6 after ZIKV infection. Scale bars, 200 μm. (n=3). (H) Quantification of ZIKV infectious particles produced by ZIKV-infected hNPCs at day 6 by the Vero cell reinfection assay. (I) hNPCs with or without ZIKV infection treated with HH maintain hNPC marker expression and differentiation capacity. hNPCs with or without ZIKV MR766 infection were treated with 25 μM HH or DMSO for 3 days and then stained for SOX2, NESTIN and with DAPI. hNPCs with or without ZIKV infection and treated with HH or DMSO for 3 days were differentiated to cortical neurons. The cortical neurons were then fixed and stained for MAP2, TUJ1 and with DAPI. Scale bars, 100 μm. (n=3). (J) ZIKV (MR766 strain) dynamics in hNPCs. qRT-PCR analysis to quantify the total and replicating (−) strand vRNAs in the hNPCs at different time points post infection. […] (K) qRT-PCR analysis of hNPCs, on which 25 μM HH or DMSO were added at 24 h, 36 h and 48 h post-ZIKV (MR766 strain) infection and maintained for additional 3 days. p values were calculated by unpaired two-tailed Student's t-test. *p<0.05, **p<0.01 and ***p<0.001, if not mentioned specifically.
HH eliminates virus from ZIKV infected hNPCs. To determine whether the drug candidates are capable of eliminating ZIKV in previously infected hNPCs, HH or AQ was applied 2 h post ZIKV infection (FIG. 2A).
ZIKV-infected hNPCs were treated with HH or AQ for 3 days, followed by 3 days culture in drug-free medium. Immunocytochemical analysis of ZIKV E, cleaved-caspase-3 (CAS3) and DAPI were performed at day 0 (just before ZIKV infection), day 3, and day 6 to measure the ZIKV infection rate, cell death rate and total cell numbers, respectively. […] In addition, neither ZIKV vRNA, as indicated by qRT-PCR (FIG. 2F), or production of infectious ZIKV, as indicated by a Vero cell re-infection assay, was detected in day 6 supernatant of HH-treated conditions (FIGS. 2G and 2H). […] In contrast, hNPCs without HH treatment underwent significant cell death after 3 days of ZIKV infection, and there were no cells detected after cortical neuron differentiation (data not shown).
Generation of inhibitory curves. hNPCs were plated on 96-well plates with Accutase digestion at 8.5×10^4/cm^2 density and incubated overnight. For generating inhibitory curves of compound for inhibiting ZIKV infection, cells were first treated with DMSO or different doses of hit compounds for 1 h before ZIKV infection. The cells were then infected with ZIKV MR766 at a MOI=0.125. After 2 h of infection, the virus-containing medium was replaced by fresh virus-free medium and compounds were added again to the same wells. For generating inhibitory curves of compound for eliminating ZIKV, compounds were instead added after ZIKV infection. After 3 days incubation, the cells were fixed and stained for ZIKV envelope protein (ZIKV E) and DAPI was used to stain cell nuclei. Plates were analyzed with the ImageXpress^MICRO Automated High-Content Analysis System. IC50 was calculated using MasterPlex Reader Fit 2010.

[1] = compound applied 2 h post ZIKV infection

`CCN(CC)Cc1cc(Nc2ccnc3cc(Cl)ccc23)ccc1O` [AQ, amodiaquine dihydrochloride dihydrate] was tested, and the “ZIKV infection of hNPCs at day 6” value was “comparable to the level of infection in the DMSO control condition”, the “elimination of ZIKV infection in previously infected hNPCs” value [1] was “capable of eliminating ZIKV infection” and the “ZIKV infection rate of hNPCs at day 3” value was “undetectable levels”.
For `CN1CCC2=C[C@H](O)[C@H]3OC(=O)c4cc5c(cc4[C@H]3[C@@H]21)OCO5` [HH, hippeastrine hydrobromide], the “ZIKV infection of hNPCs at day 6” value was “remained undetectable”, the “IC50 for eliminating versus inhibiting ZIKV” value [1] was “comparable IC50 values” and the “elimination of ZIKV infection in previously infected hNPCs” value [1] was “capable of eliminating ZIKV infection”. For the same compound, the “ZIKV infection rate of hNPCs at day 3” value was “undetectable levels”.
